How the values were obtained:
serum YKL-40 = assay: Serum YKL-40 immunoassay; assay type: in vivo, human; conditions: asthmatics on inhaled corticosteroids (N = 51) vs No ICS (N = 49)
Description: To determine whether elevated levels of soluble periostin and CEA proteins were detectable in peripheral blood, we examined periostin and CEA in sera from 100 asthmatics and 48 healthy controls using immunoassays. In addition, we measured IgE and YKL-40, a serum marker previously described to be elevated in some asthmatics, in these same sera. […] However, in all cases, there was substantial overlap in serum levels of each biomarker between groups. As shown in Example 8, inhaled corticosteroid (ICS) treatment reduces the bronchial epithelial expression of periostin in asthmatics that have elevated periostin at baseline (see also [8]). Of the 100 asthmatics whose serum we examined, 51 were taking inhaled corticosteroids (ICS) and 49 were not. […] Nevertheless, asthmatics on ICS had higher median serum levels of IgE, periostin, and CEA than healthy controls (Table 13). As shown in FIG. 4 and Table 10, 21/23 asthmatics positive for the bronchial epithelial IL-13 signature (“IL-13 high”) had serum IgE levels greater than 100 IU/ml, although a proportion of “IL-13 low” asthmatics also had elevated IgE. […] As airway expression levels of periostin and CEACAM5 were highly correlated in “IL-13 high” asthmatics, we examined the correlation between serum periostin and CEA across all asthmatics (FIG. 13L).

subjects with asthma = assay: Randomized controlled trial of inhaled fluticasone or placebo: FEV1 by spirometry; assay type: in vivo, human; conditions: for Improvement in FEV1 as compared to subjects treated with placebo: inhaled fluticasone, 4 and 8 weeks; for ΔFEV1 with fluticasone at 4 weeks / ΔFEV1 with fluticasone 8 weeks: asthma, inhaled fluticasone 500 μg twice daily, mean ± SD
Description: “Forced expiratory volume (FEV1)” refers to a standard test that measures the volume of air expelled in the first second of a forced expiration. […] To perform spirometry, a person inhales deeply, closes the mouth tightly around the tube and then exhales through the tubing while measurements are taken. The volume of air exhaled, and the length of time each breath takes is recorded and analyzed. Spirometry results are expressed as a percentage. Examples of normal spirometry results include a FEV1 of 75 percent of vital capacity after one second. An example of abnormal spirometry results include a reading of less than 80 percent of the normal predicted value. An abnormal result usually indicates the presence of some degree of obstructive lung disease such as asthma, emphysema or chronic bronchitis, or restrictive lung disease such as pulmonary fibrosis. For example, FEV1 values (percentage of predicted) can be used to classify the obstruction that may occur with asthma and other obstructive lung diseases like emphysema or chronic bronchitis: FEV1 […] to 79 percent predicted=mild obstruction, FEV1 40 percent to 59 percent predicted=moderate obstruction, and FEV1 less than 40 percent predicted=severe obstruction. Thirty-two of the subjects with asthma had also been enrolled in a double-blind randomized controlled clinical trial of inhaled fluticasone (500 μg, twice daily, N=19) or matched placebo (N=13) (ClinicalTrials.gov Identifier: NCT00187499). The trial was designed to determine the effects of inhaled steroid (fluticasone) on airway gene expression and to relate gene expression changes to improvements in lung function. The asthma subjects in the clinical trial had undergone baseline bronchoscopy and had been randomized to receive study medication before undergoing repeat bronchoscopy one week later after starting study drug. Asthma subjects continued study medication for a total of 8 weeks. Healthy control subjects and smokers were enrolled in one of three cross-sectional studies, which comprised two visits each, the first for characterization and the second for bronchoscopy 1 week later. Thirty-five subjects had adequate baseline bronchoscopy, and 32 had RNA available from epithelial brushings at both bronchoscopies. Lung function was measured (by spirometry) after 4 weeks and 8 weeks on study medication, and a final spirometry was completed after a one week run-out. Methods for bronchoscopy, epithelial brushing, bronchoalveaolar lavage, spirometry, and sample handling were identical across all studies. Bronchoalveolar lavage (BAL) was performed by instilling 4 aliquots of 50 ml of sterile saline into either the lingula or right middle lobe, with recovery by suction. Cell counts were performed using a hemocytometer and Turks solution (1% glacial acetic acid and 0.01% gentian violet in distilled H2O). Then BAL cell differentials were performed on cytocentrifuged preparations using the Shandon Kwik-Diff stain kit (Thermo Fisher Scientific, Waltham Mass.). Thirty-two of the subjects with asthma were also enrolled in a double-blind randomized controlled clinical trial of inhaled fluticasone (500 mcg BID) or matched placebo. In addition to the inclusion criteria above, these subjects were also required to have either asthma symptoms on 2 or more days per week, or β-agonist use on 2 or more days per week, or FEV1<85% predicted. Subjects in the clinical trial underwent a baseline visit and baseline bronchoscopy as described above, were randomized to receive study medication and underwent repeat bronchoscopy one week later. Then, they continued study medication for a total of 8 weeks with scheduled re-assessment of spirometry and methacholine challenge testing. […]

CCC(=O)O[C@]1(C(=O)SCF)[C@H](C)C[C@H]2[C@@H]3C[C@H](F)C4=CC(=O)C=C[C@]4(C)[C@@]3(F)[C@@H](O)C[C@@]21C [fluticasone, fluticasone propionate]
YKL-49, level of serum biomarker, median (range) (serum YKL-40): 72 (24-494) ng/ml | Improvement in FEV1 as compared to subjects treated with placebo (subjects with asthma; IL-13 high asthma subphenotype): significant improvements in FEV1 | Improvements in FEV1 after a one week run out period off drug (subjects with asthma; IL-13 high group, week 9): lost | Improvement in FEV1 as compared to subjects treated with placebo (subjects with asthma; IL-13 low asthma subphenotype): did not | ΔFEV1 with fluticasone at 4 weeks (subjects with asthma; IL13 Signature Low): 0.03 ± 0.12 L | ΔFEV1 with fluticasone 8 weeks (subjects with asthma; IL13 Signature Low): 0.04 ± 0.12 L | ΔFEV1 with fluticasone at 4 weeks (subjects with asthma; IL-13 Signature High): 0.35 ± 0.2 L | ΔFEV1 with fluticasone 8 weeks (subjects with asthma; IL-13 Signature High): 0.25 ± 0.23 L

Source: patent US20110123530A1, “COMPOSITIONS AND METHODS FOR TREATING AND DIAGNOSING ASTHMA” (priority 2008, published 2011)
